# Assay results published in ChEMBL document CHEMBL5505979, “Novel aminothiazoximone-corbelled ethoxycarbonylpyrimidones with antibiofilm activity to conquer Gram-negative bacteria through potential multitargeting effects” (Eur J Med Chem, 2024).
# Calls of active or inactive are those of the source. The calls are words filed in the database; no cut-off is given here.
# Legend:
# Escherichia coli [1] = assay: Reduction of biofilm virulent factors in Escherichia coli ATCC 25922 assessed as decrease in extracellular polymeric substances (EPS) by measuring optical density at 490 nm at 2 times of MIC concentration by congo red binding assay (reference value: 0.028 to 0.031); assay type: functional
# Acinetobacter baumannii [2] = assay: Anti-bacterial activity against Acinetobacter baumannii assessed as growth inhibition by measuring optical density measured at 1/2 time of MIC in presence of 1 times of MIC of norfloxacin by Checkerboard assay (reference value: 0.152); assay type: functional
# Escherichia coli [3] = assay: Induction of ROS accumulation in Escherichia coli ATCC 25922 assessed as decrease in GSH activity by measuring reduced GSH to convert to oxidized GSSG at 1/4 to 2 times of MIC by Ellmans metho; assay type: functional, organism-based
# Escherichia coli [4] = assay: Reduction in metabolic activity of Escherichia coli ATCC 25922 assessed as decrease in bacterial lactate dehydrogenase activity at 0.5 to 8 times of MIC concentration; assay type: functional, organism-based
# Acinetobacter baumannii [5] = assay: Induction of membrane disturbance in Acinetobacter baumannii assessed as increase in fluorescence intensity at 0.5 to 8 times of MIC concentration measured after 90 mins by Propidium iodide assay; assay type: functional, organism-based
# Escherichia coli [6] = assay: Anti-bacterial activity against Escherichia coli ATCC 25922 assessed as growth inhibition by measuring optical density measured at 1/2 time of MIC in presence of 2 times of MIC of norfloxacin by Checkerboard assay (reference value: 0.124); assay type: functional
# Escherichia coli [7] = assay: Reduction of biofilm virulent factors in Escherichia coli ATCC 25922 assessed as decrease in extracellular polymeric substances (EPS) at 1/2 times of MIC concentration by congo red binding assay relative to control; assay type: functional; design: scale not given: the % may be the effect or the level left
# Acinetobacter baumannii [8] = assay: Reduction of biofilm virulent factors in Acinetobacter baumannii assessed as decrease in extracellular polymeric substances (EPS) at 2 times of MIC concentration by congo red binding assay relative to control; assay type: functional; design: scale not given: the % may be the effect or the level left
# Escherichia coli [9] = assay: Anti-bacterial activity against Escherichia coli ATCC 25922 assessed as growth inhibition by measuring optical density measured at 1/2 time of MIC in presence of 1/8 times of MIC of norfloxacin by Checkerboard assay (reference value: 0.124); assay type: functional
# Pseudomonas aeruginosa = assay: Anti-bacterial activity against Pseudomonas aeruginosa CMCC (B) 10104 assessed as inhibition of bacterial growth; assay type: functional; details: Pseudomonas aeruginosa, CMCC (B) 10104; read-out: MIC
# Escherichia coli [10] = assay: Anti-bacterial activity against Escherichia coli ATCC 25922 assessed as growth inhibition by measuring optical density measured at 1 time of MIC in presence of 1 times of MIC of norfloxacin by Checkerboard assay (reference value: 0.125); assay type: functional
# Acinetobacter baumannii [11] = assay: Anti-bacterial activity against Acinetobacter baumannii assessed as growth inhibition by measuring optical density measured at 2 time of MIC in presence of 2 times of MIC of norfloxacin by Checkerboard assay (reference value: 0.155); assay type: functional
# Cell membrane = assay: Induction of physical destruction of cell membrane in Escherichia coli ATCC 25922 assessed as leakage of nucleic acid by measuring absorbance of 260 nm at 1/4 to 8 times of MIC concentration; assay type: cell membranes
# Escherichia coli [12] = assay: Anti-bacterial activity against Escherichia coli ATCC 25922 assessed as growth inhibition by measuring optical density measured at 4 time of MIC in presence of 1 times of MIC of norfloxacin by Checkerboard assay (reference value: 0.125); assay type: functional
# Escherichia coli [13] = assay: Anti-bacterial activity against Escherichia coli ATCC 25922 assessed as growth inhibition by measuring optical density measured at 2 time of MIC in presence of 1 times of MIC of norfloxacin by Checkerboard assay (reference value: 0.128); assay type: functional
# Staphylococcus aureus [14] = assay: Anti-bacterial activity against Staphylococcus aureus ATCC 12600 assessed as inhibition of bacterial growth; assay type: functional; details: Staphylococcus aureus, ATCC 12600; read-out: MIC
# Escherichia coli [15] = assay: Anti-bacterial activity against Escherichia coli ATCC 25922 assessed as growth inhibition by measuring optical density measured at 2 time of MIC in presence of 1/2 times of MIC of norfloxacin by Checkerboard assay (reference value: 0.128); assay type: functional
# Escherichia coli [16] = assay: Anti-bacterial activity against Escherichia coli JM109 assessed as inhibition of bacterial growth; assay type: functional
# Acinetobacter baumannii [17] = assay: Anti-bacterial activity against Acinetobacter baumannii assessed as bacterial mortality at 1 to 4 MIC concentration by propidium iodide based fluorescence microscopy relative to control; assay type: functional, organism-based
# Acinetobacter baumannii [18] = assay: Anti-bacterial activity against Acinetobacter baumannii assessed as growth inhibition by measuring optical density measured at 2 time of MIC in presence of 1/8 times of MIC of norfloxacin by Checkerboard assay (reference value: 0.155); assay type: functional
# Escherichia coli [19] = assay: Reduction in metabolic activity of Escherichia coli ATCC 25922 assessed as decrease in fluorescence intensity at 1/4 to 8 times of MIC measured after 6 hrs by resazurin sodium salt assay; assay type: functional, organism-based
# Calf thymus DNA = assay: Binding affinity to calf thymus DNA assessed as decrease in fluorescence intensity at 530 nm by Acridine Orange based fluorescence spectroscopy; assay type: nucleic-acid assay; details: Bos taurus
# Acinetobacter baumannii [20] = assay: Anti-bacterial activity against Acinetobacter baumannii assessed as growth inhibition by measuring optical density measured at 1/4 time of MIC in presence of 1/8 times of MIC of norfloxacin by Checkerboard assay (reference value: 0.152); assay type: functional
# Staphylococcus aureus [21] = assay: Anti-bacterial activity against Staphylococcus aureus CMCC (B) 26001 assessed as inhibition of bacterial growth; assay type: functional
# Candida parapsilosis = assay: Anti-fungal activity against Candida parapsilosis assessed as inhibition of fungal growth; assay type: functional; details: Lodderomyces parapsilosis; read-out: MIC
# Escherichia coli [22] = assay: Reduction of biofilm virulent factors in Escherichia coli ATCC 25922 assessed as decrease in extracellular polymeric substances (EPS) at 4 times of MIC concentration by congo red binding assay relative to control; assay type: functional; design: scale not given: the % may be the effect or the level left
# Acinetobacter baumannii [23] = assay: Anti-bacterial activity against Acinetobacter baumannii assessed as growth inhibition by measuring optical density measured at 4 time of MIC in presence of 1/2 times of MIC of norfloxacin by Checkerboard assay (reference value: 0.152); assay type: functional
# Staphylococcus aureus [24] = assay: Anti-bacterial activity against methicillin-resistant Staphylococcus aureus ATCC 43300 assessed as inhibition of bacterial growth; assay type: functional; details: Staphylococcus aureus, ATCC 43300; read-out: MIC
# Candida tropicalis = assay: Anti-fungal activity against Candida tropicalis assessed as inhibition of fungal growth; assay type: functional; details: Candida tropicalis; read-out: MIC
# Acinetobacter baumannii [25] = assay: Anti-bacterial activity against Acinetobacter baumannii assessed as growth inhibition by measuring optical density measured at 2 time of MIC in presence of 1/4 times of MIC of norfloxacin by Checkerboard assay (reference value: 0.155); assay type: functional
# Staphylococcus aureus [26] = assay: Anti-bacterial activity against Staphylococcus aureus ATCC 25923 assessed as inhibition of bacterial growth; assay type: functional; details: Staphylococcus aureus, ATCC 25923; read-out: MIC
# Acinetobacter baumannii [27] = assay: Anti-bacterial activity against Acinetobacter baumannii assessed as inhibition of bacterial growth measured upto 9 hrs; assay type: functional, organism-based
# Acinetobacter baumannii [28] = assay: Reduction in metabolic activity of Acinetobacter baumannii assessed as decrease in bacterial lactate dehydrogenase activity at 0.5 to 8 times of MIC concentration; assay type: functional, organism-based
compound,measurement,setting,value
CCCCc1nc(Cl)c(C2NC(=O)NC(CN3CCN(C(=O)/C(=N/OC)c4csc(N)n4)CC3)=C2C(=O)OCC)[nH]1 (stereo not drawn),OD,Escherichia coli [1],0.068
same,OD,Acinetobacter baumannii [2],0.109
same,Activity,Escherichia coli [3],Active
same,Activity,Escherichia coli [4],Active
same,Activity,Acinetobacter baumannii [5],Active
same,OD,Escherichia coli [6],0.051
same,Activity,Escherichia coli [7],64.4%
same,Activity,Acinetobacter baumannii [8],70.2%
same,OD,Escherichia coli [9],0.117
same,MIC,Pseudomonas aeruginosa,26 µM
same,OD,Escherichia coli [10],0.056
same,OD,Acinetobacter baumannii [11],0.051
same,Activity,Cell membrane,Active
same,OD,Escherichia coli [12],0.051
same,OD,Escherichia coli [13],0.052
same,MIC,Staphylococcus aureus [14],7 µM
same,OD,Escherichia coli [15],0.057
same,MIC,Escherichia coli [16],13 µM
same,Activity,Acinetobacter baumannii [17],Active
same,OD,Acinetobacter baumannii [18],0.128
same,Activity,Escherichia coli [19],Active
same,Activity,Calf thymus DNA,Active
same,OD,Acinetobacter baumannii [20],0.127
same,MIC,Staphylococcus aureus [21],26 µM
same,MIC,Candida parapsilosis,422 µM
same,Activity,Escherichia coli [22],52.3%
same,OD,Acinetobacter baumannii [23],0.05
same,MIC,Staphylococcus aureus [24],13 µM
same,MIC,Candida tropicalis,53 µM
same,OD,Acinetobacter baumannii [25],0.107
same,MIC,Staphylococcus aureus [26],7 µM
same,Activity,Acinetobacter baumannii [27],Dose-Dependent Effect
same,Activity,Acinetobacter baumannii [28],Active
